# Results published in the supplement of paper PMC10307832.
# Columns and labels:
# Test in all cases: relative viability (nuclei count vs DMSO), 5 days (fraction); higher = more cells survive
# Dactolisib + Lapatinib = compound: Cn1c(=O)n(-c2ccc(C(C)(C)C#N)cc2)c2c3cc(-c4cnc5ccccc5c4)ccc3ncc21 [Dactolisib] + CS(=O)(=O)CCNCc1ccc(-c2ccc3ncnc(Nc4ccc(OCc5cccc(F)c5)c(Cl)c4)c3c2)o1 [Lapatinib] (partner 2 µM)
# Summary of the method: (§1)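 Lung cancer cell lines were pin-tool dosed in 1536-well plates on the day after seeding, with either a lone drug or a fixed anchor-drug dose plus five library-drug doses (not always all listed) in √10 steps. Nuclei were counted on 4× images after 5 days. Relative viability is the ratio of treated-well to vehicle-well nuclei counts, with each value a median of duplicate plates.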
# AZ505 + Phenformin = compound: C1CCC(CC1)N(CCNCCC2=C3C(=C(C=C2)O)NC(=O)CO3)C(=O)CCNCCC4=CC(=C(C=C4)Cl)Cl [AZ505] + N=C(N)NC(=N)NCCc1ccccc1 [Phenformin] (partner 250 µM)
# Summary of the method: as §1
# AZ505 + Vorinostat = compound: C1CCC(CC1)N(CCNCCC2=C3C(=C(C=C2)O)NC(=O)CO3)C(=O)CCNCCC4=CC(=C(C=C4)Cl)Cl [AZ505] + O=C(CCCCCCC(=O)Nc1ccccc1)NO [Vorinostat] (partner 1 µM)
# Summary of the method: as §1
# Dactolisib + Vorinostat = compound: Cn1c(=O)n(-c2ccc(C(C)(C)C#N)cc2)c2c3cc(-c4cnc5ccccc5c4)ccc3ncc21 [Dactolisib] + O=C(CCCCCCC(=O)Nc1ccccc1)NO [Vorinostat] (partner 1 µM)
# Summary of the method: as §1
Cell Line,relative viability (Dactolisib + Lapatinib; first compound 0.002 µM),relative viability (Dactolisib + Lapatinib; first compound 0.006325 µM),relative viability (Dactolisib + Lapatinib; first compound 0.02 µM),relative viability (Dactolisib + Lapatinib; first compound 0.06325 µM),relative viability (Dactolisib + Lapatinib; first compound 0.2 µM),relative viability (AZ505 + Phenformin; first compound 0.08 µM),relative viability (AZ505 + Phenformin; first compound 0.253 µM),relative viability (AZ505 + Phenformin; first compound 0.8 µM),relative viability (AZ505 + Phenformin; first compound 2.53 µM),relative viability (AZ505 + Phenformin; first compound 8 µM),relative viability (AZ505 + Vorinostat; first compound 0.08 µM),relative viability (AZ505 + Vorinostat; first compound 0.253 µM),relative viability (AZ505 + Vorinostat; first compound 0.8 µM),relative viability (AZ505 + Vorinostat; first compound 2.53 µM),relative viability (AZ505 + Vorinostat; first compound 8 µM),relative viability (Dactolisib + Vorinostat; first compound 0.002 µM),relative viability (Dactolisib + Vorinostat; first compound 0.006325 µM),relative viability (Dactolisib + Vorinostat; first compound 0.02 µM),relative viability (Dactolisib + Vorinostat; first compound 0.06325 µM),relative viability (Dactolisib + Vorinostat; first compound 0.2 µM)
SW 1573,1.13,1.08,1.04,0.458,0.367,0.36,0.402,0.333,0.341,0.373,0.807,0.806,1.53,0.756,0.79,0.571,0.588,0.627,0.243,0.25
NCI-H1650,0.847,0.701,0.73,0.449,0.431,0.429,0.4,0.423,0.405,0.463,0.54,0.602,0.605,0.725,0.457,0.47,0.508,0.504,0.32,0.264
NCI-H2009,1.1,1.01,0.95,0.9,0.327,0.387,0.486,0.468,0.506,0.442,0.635,0.678,0.652,0.626,0.678,0.746,0.719,0.704,0.568,0.202
LOU-NH91,0.725,0.782,0.666,0.567,0.51,0.685,0.684,0.604,0.805,0.729,0.837,0.855,0.91,0.856,0.908,0.903,0.898,0.784,0.524,0.529
NCI-H2405,1.03,1.11,1.01,0.735,0.393,0.278,0.214,0.31,0.218,0.263,0.811,,0.823,0.856,0.863,1.09,1.02,0.839,0.391,0.277
LCLC-97TM1,0.926,0.558,0.842,0.269,0.317,0.386,0.445,0.416,0.428,0.462,0.625,0.746,0.748,,0.984,0.615,0.655,0.612,0.251,0.311
NCI-H596,1.02,1.06,0.909,0.574,0.369,0.619,0.833,0.859,0.719,0.754,0.549,,0.577,0.612,0.521,0.48,0.577,0.521,0.313,0.222
NCI-H727,0.753,0.648,0.994,0.363,0.345,0.651,0.461,0.525,,0.613,1.11,1.07,1.2,1.11,1.3,,1.31,1.16,0.981,1.3
H3255,0.329,0.257,0.226,0.237,0.225,0.303,0.377,0.379,0.321,0.38,,0.799,0.796,0.84,0.923,0.936,0.783,0.706,0.811,0.594
SK-MES-1,0.476,0.452,0.428,0.352,0.296,0.485,0.618,0.643,0.67,0.601,0.889,1,0.969,0.893,0.995,0.954,1,0.998,0.504,0.475
NCI-H1437,0.797,0.835,0.807,0.517,0.234,0.311,0.286,0.298,0.317,0.311,0.828,0.838,0.858,0.955,0.823,0.865,0.836,0.802,0.68,0.552
LU99A,0.94,0.828,0.516,0.336,0.257,,0.741,0.987,0.715,0.853,0.545,0.533,0.506,,0.504,0.417,0.368,0.407,0.246,0.162
HCC-827,0.209,0.206,0.201,0.172,0.196,0.401,0.427,0.453,0.44,0.425,0.906,0.732,0.7,0.92,0.924,0.966,0.934,0.785,0.498,0.82
LK-2,0.804,0.831,0.807,0.474,0.235,0.387,0.43,0.514,0.713,0.427,0.295,0.318,0.33,0.405,0.392,0.317,0.247,0.294,0.239,0.213
HCC-366,0.897,0.988,1.03,0.445,0.613,0.577,0.632,0.572,0.56,0.582,0.356,0.393,0.344,0.354,0.377,0.285,0.407,0.325,0.0887,0.0549
BEN,0.882,0.624,0.657,0.408,0.274,0.24,0.239,0.293,0.262,0.286,0.494,0.603,0.54,0.592,0.591,0.555,0.577,0.562,0.478,0.383
NCI-H23,1.15,1.1,0.886,0.292,0.313,0.731,,0.741,0.759,0.821,0.526,0.582,0.561,0.81,0.627,0.512,0.49,0.462,0.18,0.176
NCI-H1395,1,0.918,0.966,0.708,0.545,0.435,0.461,0.426,0.483,0.479,0.711,,0.68,0.744,0.812,0.423,0.622,0.554,0.496,0.467
201T,1.07,1.05,0.991,0.956,0.969,0.446,0.445,0.501,0.468,0.477,0.877,0.998,0.903,0.907,0.976,0.987,0.981,0.976,0.622,0.729
NCI-H2170,0.263,0.289,0.262,0.235,0.222,0.396,0.42,0.397,0.405,0.421,0.659,0.851,0.749,0.859,0.823,0.821,0.815,0.754,0.613,0.259
NCI-H460,0.965,0.945,0.927,0.234,0.112,0.448,0.534,0.48,0.482,0.551,0.69,0.912,0.672,0.71,0.782,0.643,0.659,0.723,0.127,0.173
NCI-H661,0.434,0.475,0.414,0.257,0.263,0.285,0.261,0.288,0.328,0.296,0.744,0.818,0.797,0.75,0.888,0.773,0.766,0.71,0.455,0.391
HCC-15,0.752,0.884,0.755,0.594,0.367,0.411,0.476,0.474,0.415,0.446,0.844,0.817,0.803,0.854,0.824,0.961,0.786,0.85,0.498,0.373
ABC-1,1.18,1.04,0.982,0.808,0.707,0.196,0.211,0.242,0.252,0.219,1.07,,0.976,1.14,1.14,1.19,1.34,0.94,0.824,0.529
EPLC-272H,0.879,0.728,0.664,0.687,0.4,,0.283,0.304,0.241,0.324,0.443,0.516,0.413,0.52,0.398,0.571,0.409,0.261,0.36,0.159
